Values quoted from earlier work as cited in paper PMC12650809, “Evolving Therapeutic Landscape of ROS1-Positive Non-Small Cell Lung Cancer: An Updated Review” (Current Oncology, 2025).
Read-outs that look alike come from different tables or passages of the source.

What was measured:
[1] = tested on: ROS1^G2032R mutation; set-up: method as in PMID 36511802; conditions: preclinical studies
[2] = tested on: wild-type ROS1; set-up: method as in PMID 36511802; conditions: preclinical studies
[3] = tested on: ROS1-positive NSCLC; set-up: method as in earlier work; conditions: WCLC 2025 Abstract 4540
[4] = tested on: ROS1^L2086F; set-up: method as in PMID 38070596; conditions: L2086F, ATP-binding pocket
[5] = tested on: ROS1^G2032R; set-up: method as in PMID 38070596; conditions: solvent-front substitution
[6] = tested on: ROS1-positive NSCLC
[7] = tested on: ROS1-positive NSCLC; remark: listed apart in the source
[8] = 117 TKI-pretreated patients, WCLC 2025 Abstract 4540
[9] = TKI-naïve patients, n = 35, preliminary, WCLC 2025 Abstract 4540
[10] = TKI-naïve patients, preliminary, WCLC 2025 Abstract 4540
[11] = most common AEs, ref WCLC 2025 Abstract 4540
[12] = grade ≥ 3, ref WCLC 2025 Abstract 4540

For CCn1ncc2c1-c1cnc(N)c(c1)O[C@H](C)c1cc(F)ccc1-c1nn(C)nc1C2 [Zidesamtinib, zidesamtinib], the IC50 [1] is given as 7.9 nM, the inhibitory activity [2] is given as “subnanomolar” and the “ORR if G2032R Mutation (%)” value ([3]; TKI-pretreated patients with G2032R) is given as 83%. The “IC-ORR (%)” value ([3]; TKI-pretreated patients) was 48%, the “TKI-Pretreated ORR (%)” value ([3]; TKI-pretreated patients) was 44% and the “mPFS (Months)” value ([3]; TKI-pretreated patients) was 9.7 Months. For the same compound, the “resistance or activity with L2086F” value [4] was “cross-resistance”, the “resistance or sensitivity with ROS1^G2032R” value [5] was “some sensitivity” and the “12-month DOR rate” value [6, 8] was 78%. For the same compound, the ORR [6, 8] was 44%, the “12-month DOR rate” value [6, 9] was 96% and the ORR [6, 9] was 89%. The “CNS progression events at data cutoff” value [6, 10] was “no CNS progression events”, the IC-ORR [6, 10] was 83% and the “intracranial complete responses (number)” value [6, 10] was “four”. For the same compound, the constipation [6, 11] was 17%, the creatine phosphokinase elevation [6, 11] was 16% and the dyspnea [6, 11] was 15%. The fatigue [6, 11] was 16%, the peripheral edema [6, 11] was 36% and the treatment discontinuations ([6]; most common reason: pneumonia, ref WCLC 2025 Abstract 4540) was 2%. For the same compound, the dose reductions ([6]; ref WCLC 2025 Abstract 4540) was 10%, the “Discontinuation for AEs (%)” value ([7]; WCLC 2025 Abstract 4540) was 2% and the “Notable AEs: constipation” value ([7]; WCLC 2025 Abstract 4540) was 17%. For the same compound, the “Notable AEs: peripheral edema” value ([7]; WCLC 2025 Abstract 4540) was 36%, the “Main Grade ≥ 3 AEs: CPK elevation” value [7, 12] was “CPK elevation (3%), dyspnea (3%)” and the “Main Grade ≥ 3 AEs: dyspnea” value [7, 12] was “CPK elevation (3%), dyspnea (3%)”. For the same compound, the “Notable AEs: CPK elevation” value ([7]; ref WCLC 2025 Abstract 4540) was 16%, the “Notable AEs: dyspnea” value ([7]; ref WCLC 2025 Abstract 4540) was 15% and the “Notable AEs: fatigue” value ([7]; ref WCLC 2025 Abstract 4540) was 16%.
